Assay results as given in article PMC5855801, “Benzothiophenone Derivatives Targeting Mutant Forms of Estrogen Receptor-α in Hormone-Resistant Breast Cancers” (International Journal of Molecular Sciences, 2018).
pIC50: −log10 of the molar value.

Key:
[1] = target: T1, ERα LBD (Homo sapiens, UniProt P03372); assay: Biolayer interferometry (BLI) direct binding assay; settings: biotinylated ERα LBD on streptavidin sensor, 3–100 μM
T1 construct: ERα LBD (amino acids 302–552) was cloned into the pAN4 AviTag™ Vector; made in house
T1 sequence (P03372 302-552): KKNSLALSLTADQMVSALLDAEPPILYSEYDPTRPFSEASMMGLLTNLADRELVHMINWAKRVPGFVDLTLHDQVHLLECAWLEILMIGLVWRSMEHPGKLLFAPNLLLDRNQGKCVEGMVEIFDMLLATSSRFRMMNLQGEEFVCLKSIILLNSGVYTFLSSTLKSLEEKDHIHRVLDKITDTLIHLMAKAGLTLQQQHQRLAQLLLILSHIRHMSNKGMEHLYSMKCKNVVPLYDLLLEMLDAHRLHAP
Procedure: The direct binding of small molecules to the ERα-LBD was quantified by BLI using an Octet RED apparatus (Pall ForteBio, Menlo Park, CA, USA). ERα LBD (amino acids 302–552) was cloned into the pAN4 AviTag™ Vector, (Avidity, Aurora, CO, USA). Biotinylated ERα-LBD was purified as described previously. Biotinylated protein (bERα LBD at 0.05 mg/mL) was bound to the super streptavidin sensors (Pall ForteBio) overnight at 4 °C in assay buffer (20 mM Tris, pH 7.5, 500 mM NaCl, 0.2 mM tris(2-carboxyethyl)phosphine TCEP, 0.02 mM E2, 5% glycerol and 5% dimethyl sulfoxide (DMSO). The compounds were dissolved in the assay buffer in a two-fold dilution series ranging from 3.1–100 μM. In all experiments, a known AF2-interacting peptide, PGC-1α (Elim Biopharmaceuticals, Hayward, CA, USA) was used as a control to confirm the functionality of the bERα LBD.

[2] = test system: ERα binding to the pS2 enhancer; assay: Chromatin immunoprecipitation (ChIP) in MCF7 cells; format: cell-based, human; settings: MCF7, 6 μM, 24 h, 1 nM E2, compared to E2 alone
Procedure: To test this hypothesis, we performed chromatin immunoprecipitation (ChIP) assays in MCF7 cells. The cells were treated for 24 h with vehicle and E2 either alone or in combination with VPC-16606.
E2-deprived MCF7 cells (1 × 10^7 cells per 10 cm plate) were treated for 24 h with DMSO alone, DMSO + E2 or compound + E2. One percent formaldehyde was added for 10 min at room temperature to perform DNA-protein crosslinking and quenched by treatment with 125 mM glycine for 5 min. Cell lysates sonicated with Sonic Dismembrator 550 instrument (Thermo Fisher Scientific, Waltham, MA, USA) to yield DNA fragments of 200–1000 bp in size. Lysates (from 3.3 × 10^6 cells) were immunoprecipitated with […] of anti-ERα antibody or […] of rabbit isotype control IgG (Santa Cruz Biotechnology, Dallas, TX, USA) using the EZ-ChIP chromatin immunoprecipitation kit (Millipore, Billerica, MA, USA). Bound DNA was quantified by qPCR (SYBR Green master mix, Invitrogen, Carlsbad, CA, USA) using the following primer sets: pS2 enhancer, forward 5′-[…]-3′ and reverse 5′-AGGGCGTGACACCAGGAAA-3′; GAPDH promoter, forward 5′-[…]-3′ and reverse 5′-TCGAACAGGAGCAGA GAGCGA-3′. The qPCR results are presented as fold enrichment of PCR amplification over control IgG antibody and normalized based on the total input (no precipitated chromatin). Primers for the GAPDH promoter were used as a negative control.

[3] = test system: mutant ERα (L536Q, Y537S, Y537C, Y537N, D538G, Y537S/D538G, S463P/Y537N); assay: Luciferase reporter assay with mutant ERα in transfected MDA-MB-231 cells; format: cell-based, human; settings: all seven mutant forms, two-fold dilution starting at 50 µM, read-out: IC50 against constitutively-active mutant forms of ERα (luciferase)
Procedure: Figure 5 Predicted MD simulations and experimental effect of VPC-16606 on mutant forms of ERα. […] (C) E2 responsiveness of the synthesized mutants. (D) pcDNA3.1 plasmid encoding either the full-length WT or mutant forms of ERα was transfected into MDA-MB-231 cells along with the 3X-ERE-TATA luciferase reporter plasmid. The cells were treated with a two-fold dilution of VPC-16606 starting at 50 µM. […] Data points are expressed as the percentage of luciferase activity relative to DMSO control. Data were fitted using the log10 of concentration of the inhibitors vs. the response with GraphPad Prism 6. Error bars indicate the standard error of the mean (SEM) for 3 independent experiments performed in triplicates.
To test this hypothesis, a site-directed mutagenesis study was initiated on WT-ERα. MDA-MB-231 cells that were transfected with plasmids encoding either WT or mutant ERα (L536Q, Y537S, Y537C, Y537N, D538G, Y537S/D538G, S463P/Y537N) along with an E2-responsive luciferase reporter plasmid and a constitutively-active Renilla reporter plasmid. The cells were treated with VPC-16606 with two-fold dilution starting at 50 µM. […] This is particularly important because they corroborate the idea that such clinically-relevant mutant forms of the receptor, which cause the receptor to be E2 independent, can be inhibited by targeting an alternative functional site on the receptor. […]

Structure (SMILES): CC(=O)N(/N=C1\Sc2c(C)cccc2C1=O)c1ccccc1Cl [VPC-16606]
- Direct binding to ERα LBD (BLI) [1]: direct reversible interaction
- ERα pull down of the promoter of pS2 (ChIP) [2]: significantly reduced
- pIC50 [3]: 6.00 to 6.30
